Laboratory results: patent US10294202B2, “Pyrrolidinones as herbicides” (FMC Corporation, priority 2013, dated 2019)

Assays:
Experiment in all cases: Test D pre-/postemergence herbicide test
bromegrass, downy = format: in vivo, Bromus tectorum; settings: for Plant response rating: Bromegrass, Downy, scale 0 to 100; for Plant response rating, Bromegrass, Downy: scale 0 to 100 (0 no effect, 100 complete control)
Description: (§1) Seeds of plant species selected from bluegrass (annual bluegrass, Poa annua), blackgrass (Alopecurus myosuroides), canarygrass (littleseed canarygrass, Phalaris minor), chickweed (common chickweed, Stellaria media), galium (catchweed bedstraw, Galium aparine), bromegrass, downy (downy bromegrass, Bromus tectorum), field poppy (Papaver rhoeas), field violet (Viola arvensis), foxtail, green (green foxtail, Setaria viridis), deadnettle (henbit deadnettle, Lamium amplexicaule), ryegrass, Italian (Italian ryegrass, Lolium multiflorum), kochia (Kochia scoparia), lambsquarters (Chenopodium album), oilseed rape (Brassica napus), pigweed (Amaranthus retroflexus), chamomile (scentless chamomile, Matricaria inodora), Russian thistle (Salsola kali), speedwell (bird's-eye speedwell, Veronica persica), barley, spring (spring barley, Hordeum vulgare), wheat, spring (spring wheat, Triticum aestivum), buckwheat, wild (wild buckwheat, Polygonum convolvulus), mustard, wild (wild mustard, Sinapis arvensis), oat, wild (wild oat, Avena fatua), radish, wild (wild radish, Raphanus raphanistrum), […]), barley, winter (winter barley, Hordeum vulgare), and wheat, winter (winter wheat, Triticum aestivum) were planted into a silt loam soil and treated preemergence with test chemicals formulated in a non-phytotoxic solvent mixture which included a surfactant. At the same time, these species were planted in pots containing Redi-Earth® planting medium (Scotts Company, 14111 Scottslawn Road, Marysville, Ohio 43041) comprising spaghnum peat moss, vermiculite, wetting agent and starter nutrients and treated with postemergence applications of the test chemicals formulated in the same manner. Plants ranged in height from 2 to 18 cm (1- to 4-leaf stage). Treated plants and controls were maintained in a controlled growth environment for 7 to 21 days after which time all species were compared to controls and visually evaluated. Plant response ratings, summarized in Table D, are based on a scale of 0 to 100 where 0 is no effect and 100 is complete control. A dash (-) response means no test result.

blackgrass = format: in vivo, Alopecurus myosuroides; settings: for Plant response rating: Blackgrass, scale 0 to 100; for Plant response rating, Blackgrass: scale 0 to 100 (0 no effect, 100 complete control)
Description: as §1

bluegrass = format: in vivo, Poa annua; settings: for Plant response rating: Bluegrass, scale 0 to 100; for Plant response rating, Bluegrass: scale 0 to 100 (0 no effect, 100 complete control)
Description: as §1

speedwell = format: in vivo, Veronica persica; settings: for Plant response rating: Postemergence, Speedwell, scale 0 to 100; for Plant response rating, Speedwell: Preemergence, scale 0 to 100 (0 no effect, 100 complete control)
Description: as §1

lambsquarters = format: in vivo, Chenopodium album; settings: for Plant response rating: Lambsquarters, scale 0 to 100; for Plant response rating, Lambsquarters: scale 0 to 100 (0 no effect, 100 complete control)
Description: as §1

O=C1NCC(c2cc(F)c(F)cc2F)C1C(=O)Nc1cccc(F)c1F (stereo not drawn) [Compound 50]
Plant response rating (bromegrass, downy; Postemergence, 16 g ai/ha): 0 | Plant response rating (bromegrass, downy; Postemergence, 31 g ai/ha): 0 | Plant response rating (bromegrass, downy; Postemergence, 62 g ai/ha): 0 | Plant response rating (bromegrass, downy; Postemergence, 125 g ai/ha): 0 | Plant response rating, Bromegrass, Downy (bromegrass, downy; Preemergence, 62 g ai/ha): 0 | Plant response rating, Bromegrass, Downy (bromegrass, downy; Preemergence, 16 g ai/ha): 0 | Plant response rating, Bromegrass, Downy (bromegrass, downy; Preemergence, 31 g ai/ha): 0 | Plant response rating (bromegrass, downy; Preemergence, 125 g ai/ha): 0 | Plant response rating (blackgrass; Postemergence, 16 g ai/ha): 0 | Plant response rating (blackgrass; Postemergence, 31 g ai/ha): 0 | Plant response rating (blackgrass; Postemergence, 62 g ai/ha): 0 | Plant response rating (blackgrass; Postemergence, 125 g ai/ha): 0 | Plant response rating, Blackgrass (blackgrass; Preemergence, 62 g ai/ha): 0 | Plant response rating, Blackgrass (blackgrass; Preemergence, 16 g ai/ha): 0 | Plant response rating, Blackgrass (blackgrass; Preemergence, 31 g ai/ha): 0 | Plant response rating (blackgrass; Preemergence, 125 g ai/ha): 0 | Plant response rating (bluegrass; Postemergence, 16 g ai/ha): 0 | Plant response rating (bluegrass; Postemergence, 31 g ai/ha): 0 | Plant response rating (bluegrass; Postemergence, 62 g ai/ha): 0 | Plant response rating (bluegrass; Postemergence, 125 g ai/ha): 0 | Plant response rating, Bluegrass (bluegrass; Preemergence, 62 g ai/ha): 0 | Plant response rating, Bluegrass (bluegrass; Preemergence, 16 g ai/ha): 0 | Plant response rating, Bluegrass (bluegrass; Preemergence, 31 g ai/ha): 0 | Plant response rating (bluegrass; Preemergence, 125 g ai/ha): 0 | Plant response rating (speedwell; 16 g ai/ha): 0 | Plant response rating, Speedwell (speedwell; 62 g ai/ha): 0 | Plant response rating, Speedwell (speedwell; 125 g ai/ha): 0 | Plant response rating, Speedwell (speedwell; 16 g ai/ha): 0 | Plant response rating, Speedwell (speedwell; 31 g ai/ha): 0 | Plant response rating (lambsquarters; Postemergence, 16 g ai/ha): 5 | Plant response rating (lambsquarters; Postemergence, 31 g ai/ha): 5 | Plant response rating (lambsquarters; Postemergence, 62 g ai/ha): 5 | Plant response rating (lambsquarters; Postemergence, 125 g ai/ha): 20 | Plant response rating, Lambsquarters (lambsquarters; Preemergence, 62 g ai/ha): 0 | Plant response rating, Lambsquarters (lambsquarters; Preemergence, 16 g ai/ha): 0 | Plant response rating, Lambsquarters (lambsquarters; Preemergence, 31 g ai/ha): 0 | Plant response rating (lambsquarters; Preemergence, 125 g ai/ha): 0

O=C1NCC(c2ccc(Cl)c(F)c2)C1C(=O)Nc1cccc(F)c1F (stereo not drawn) [Compound 52]
Plant response rating (bromegrass, downy; Postemergence, 16 g ai/ha): 0 | Plant response rating (bromegrass, downy; Postemergence, 31 g ai/ha): 0 | Plant response rating (bromegrass, downy; Postemergence, 62 g ai/ha): 0 | Plant response rating (bromegrass, downy; Postemergence, 125 g ai/ha): 0 | Plant response rating (bromegrass, downy; Postemergence, 250 g ai/ha): 0 | Plant response rating, Bromegrass, Downy (bromegrass, downy; Preemergence, 62 g ai/ha): 0 | Plant response rating, Bromegrass, Downy (bromegrass, downy; Preemergence, 16 g ai/ha): 0 | Plant response rating, Bromegrass, Downy (bromegrass, downy; Preemergence, 31 g ai/ha): 0 | Plant response rating (bromegrass, downy; Preemergence, 125 g ai/ha): 0 | Plant response rating (bromegrass, downy; Preemergence, 250 g ai/ha): 0 | Plant response rating (blackgrass; Postemergence, 16 g ai/ha): 0 | Plant response rating (blackgrass; Postemergence, 31 g ai/ha): 0 | Plant response rating (blackgrass; Postemergence, 62 g ai/ha): 0 | Plant response rating (blackgrass; Postemergence, 125 g ai/ha): 0 | Plant response rating (blackgrass; Postemergence, 250 g ai/ha): 0 | Plant response rating, Blackgrass (blackgrass; Preemergence, 62 g ai/ha): 0 | Plant response rating, Blackgrass (blackgrass; Preemergence, 16 g ai/ha): 0 | Plant response rating, Blackgrass (blackgrass; Preemergence, 31 g ai/ha): 0 | Plant response rating (blackgrass; Preemergence, 125 g ai/ha): 0 | Plant response rating (blackgrass; Preemergence, 250 g ai/ha): 0 | Plant response rating (bluegrass; Postemergence, 16 g ai/ha): 0 | Plant response rating (bluegrass; Postemergence, 31 g ai/ha): 0 | Plant response rating (bluegrass; Postemergence, 62 g ai/ha): 0 | Plant response rating (bluegrass; Postemergence, 125 g ai/ha): 0 | Plant response rating (bluegrass; Postemergence, 250 g ai/ha): 0 | Plant response rating, Bluegrass (bluegrass; Preemergence, 62 g ai/ha): 0 | Plant response rating, Bluegrass (bluegrass; Preemergence, 16 g ai/ha): 0 | Plant response rating, Bluegrass (bluegrass; Preemergence, 31 g ai/ha): 0 | Plant response rating (bluegrass; Preemergence, 125 g ai/ha): 0 | Plant response rating (bluegrass; Preemergence, 250 g ai/ha): 20 | Plant response rating (speedwell; 16 g ai/ha): 20 | Plant response rating (speedwell; 31 g ai/ha): 20 | Plant response rating (speedwell; 62 g ai/ha): 25 | Plant response rating (speedwell; 125 g ai/ha): 40 | Plant response rating (speedwell; 250 g ai/ha): 70 | Plant response rating, Speedwell (speedwell; 62 g ai/ha): 90 | Plant response rating, Speedwell (speedwell; 125 g ai/ha): 100 | Plant response rating, Speedwell (speedwell; 16 g ai/ha): 0 | Plant response rating, Speedwell (speedwell; 31 g ai/ha): 90 | Plant response rating, Speedwell (speedwell; 250 g ai/ha): 100 | Plant response rating (lambsquarters; Postemergence, 16 g ai/ha): 0 | Plant response rating (lambsquarters; Postemergence, 31 g ai/ha): 0 | Plant response rating (lambsquarters; Postemergence, 62 g ai/ha): 0 | Plant response rating (lambsquarters; Postemergence, 125 g ai/ha): 30 | Plant response rating (lambsquarters; Postemergence, 250 g ai/ha): 30 | Plant response rating, Lambsquarters (lambsquarters; Preemergence, 62 g ai/ha): 0 | Plant response rating, Lambsquarters (lambsquarters; Preemergence, 16 g ai/ha): 0 | Plant response rating, Lambsquarters (lambsquarters; Preemergence, 31 g ai/ha): 0 | Plant response rating (lambsquarters; Preemergence, 125 g ai/ha): 20 | Plant response rating (lambsquarters; Preemergence, 250 g ai/ha): 20
